Values of other authors, collected in patent US6717012B2, “Antioxidant nitroxides and nitrones as therapeutic agents” (priority 2001, dated 2004).

Experiments:
[1] = test system: rats with an experimental painful peripheral neuropathy
[2] = molecular target: NMDA receptor (Homo sapiens, UniProt Q05586)
[3] = test system: cortical and retinal neuron cultures
[4] = test system: quinolic acid-induced hippocampal damage; conditions: rats
[5] = molecular target: NMDA channel ([3H]dizocilpine binding to brain membranes) (Homo sapiens, UniProt Q05586)
[6] = test system: nicotinic acetylcholine receptors
[7] = molecular target: T1, 5-hydroxytryptamine 5-HT3 receptors (Homo sapiens, UniProt P46098)
T1 sequence (P46098 24-478): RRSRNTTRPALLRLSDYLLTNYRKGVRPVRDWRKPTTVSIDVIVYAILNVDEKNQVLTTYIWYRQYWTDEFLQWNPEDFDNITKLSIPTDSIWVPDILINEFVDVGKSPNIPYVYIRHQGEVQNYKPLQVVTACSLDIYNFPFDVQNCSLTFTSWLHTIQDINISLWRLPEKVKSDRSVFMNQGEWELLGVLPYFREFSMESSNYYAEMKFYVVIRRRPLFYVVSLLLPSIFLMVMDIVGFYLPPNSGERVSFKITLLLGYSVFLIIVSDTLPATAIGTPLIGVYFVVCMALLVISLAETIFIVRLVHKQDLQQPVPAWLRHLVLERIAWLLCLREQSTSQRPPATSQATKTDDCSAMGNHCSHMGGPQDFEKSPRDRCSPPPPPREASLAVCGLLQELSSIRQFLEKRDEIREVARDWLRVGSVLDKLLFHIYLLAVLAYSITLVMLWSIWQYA

[8] = molecular target: PCP and MK-801 binding sites of the NMDA receptor (Homo sapiens, UniProt Q05586); conditions: postmortem human frontal cortex, at therapeutic concentrations

SMILES | effect on heat hyperalgesia [1] | antagonist potency at the NMDA receptor [2] | protection from toxicity of glutamate, NMDA and HIV-1 coat protein gp120 [3] | prevention of quinolic acid-induced hippocampal damage [4] | inhibition of [3H]dizocilpine binding [5] | block of nicotinic acetylcholine receptors [6] | block of 5-HT3 receptors [7] | binding to PCP and MK-801 binding sites [8]
CC1(C)CC(O)CC(C)(C)N1[O] [4-hydroxy-2,2,6,6-tetramethylpiperidine-1-oxyl] | alleviated heat hyperalgesia | – | – | – | – | – | – | –
CC12CC3CC(C)(C1)CC(N)(C3)C2 [Memantine, 1-amino-3,5-dimethyladamantane] | – | micromolar antagonist | protects | prevents | inhibits | blocks | blocks | binds
